In patent US20260216216A1, “(N-ALKYLDIHYDROL-2H-OXAZINYL)-CANNABIDIOL AS ANTI-PROLIFERATIVE AGENT AND PROCESS FOR PREPARATION THEREOF” (COUNCIL OF SCIENTIFIC AND INDUSTRIAL RESEARCH, priority 2022, published 2026):
Like-named read-outs stand apart in the source and are kept apart here.

Tests used:
[1] = tested on: HCT-116 (colorectal cancer) cell line; experiment: SRB in-vitro cytotoxicity assay, HCT-116; conditions: Homo sapiens
Procedure: (§1) All the ring annulated analogues of cannabinoid were evaluated for their cytotoxicity against number of human cancer cell lines. To evaluate the in-vitro cytotoxicity, a sulphorhodamine B (SRB) assay was carried out. SRB is a negatively charged pink aminoxanthine dye that binds to the basic amino acid of cells in mildly acidic conditions and is removed in basic conditions. […] When cells reached 60-70% confluency, trypsinized and seeded in 96 well plates according to their inoculation density and incubated for 24 hours to attain their proper morphology. Next-day cells were again incubated for 48 hours with test compounds or paclitaxel (positive control). Next, cells were fixed with 50% of ice-cold TCA for 1 hours, washed with distilled water, and kept for air drying. Air-dried plates were then stained with 0.4% SRB dye for 30 minutes and subsequently with water and 1% v/v glacial acetic acid were then kept for air drying. […] The viability of cells is measured based on bound dye after fixation, which is measured by absorbance at 540 nm.

[2] = tested on: MCF-7 (breast cancer) cell line; experiment: SRB in-vitro cytotoxicity assay, MCF-7; conditions: Homo sapiens
Procedure: as §1

[3] = tested on: A549 (lung cancer) cell line; experiment: SRB in-vitro cytotoxicity assay, A549; conditions: Homo sapiens
Procedure: as §1

[4] = tested on: PC-3 (prostate cancer) cell line; experiment: SRB in-vitro cytotoxicity assay, PC-3; conditions: Homo sapiens
Procedure: as §1

[5] = tested on: U251 (glioblastoma) cell line; experiment: SRB in-vitro cytotoxicity assay, U251; conditions: Homo sapiens
Procedure: as §1

[6] = tested on: Mia-PaCa (pancreatic cancer) cell line; experiment: SRB in-vitro cytotoxicity assay, Mia-PaCa; conditions: Homo sapiens
Procedure: as §1

in vitro = conditions: human
Procedure: as §1

[7] = tested on: HEK-293 (normal cell lines); experiment: SRB in-vitro cytotoxicity assay, HEK-293; conditions: Homo sapiens, HEK293, read-out: inhibition against HEK-293 cell lines
Procedure: as §1

[8] = HCT-116, 48 h, read-out: Cytotoxicity (in vitro cell inhibition) HCT-116
[9] = HCT-116, read-out: inhibition against HCT-116 cell lines
[10] = MCF7, 48 h, read-out: Cytotoxicity (in vitro cell inhibition) MCF-7
[11] = MCF7, read-out: inhibition against MCF-7 cell lines
[12] = A549, 48 h, read-out: Cytotoxicity (in vitro cell inhibition) A549
[13] = A549, read-out: inhibition against A549 cell lines
[14] = 48 h, read-out: Cytotoxicity (in vitro cell inhibition) PC3
[15] = PC-3, read-out: inhibition against PC3 cell lines
[16] = U-251, 48 h, read-out: Cytotoxicity (in vitro cell inhibition) U251
[17] = MIA PaCa-2, 48 h, read-out: Cytotoxicity (in vitro cell inhibition) Mia-PaCa
[18] = MIA PaCa-2, read-out: inhibition against Mia-PaCa cell lines
[19] = U-251, read-out: inhibition against U251 cell lines

SMILES | inhibition at 20 µM [1, 8] [%] | inhibition at 20 µM [1, 9] [%] | inhibition at 20 µM [2, 10] [%] | inhibition at 20 µM [2, 11] [%] | inhibition at 20 µM [3, 12] [%] | inhibition at 20 µM [3, 13] [%] | inhibition at 20 µM [4, 14] [%] | inhibition at 20 µM [4, 15] [%] | inhibition at 20 µM [5, 16] [%] | inhibition at 20 µM [6, 17] [%] | inhibition at 20 µM [6, 18] [%] | inhibition at 20 µM [5, 19] [%] | inhibition at 20 µM (in vitro) [%] | inhibition at 20 µM [7] [%] | other results
C=C(C)[C@@H]1CCC(C)=C[C@H]1c1c(O)cc(CCCCC)cc1O [IIa, cannabidiol] | > 70 | > 70 | 50 to 70 | > 50 | > 70 | > 70 | 50 to 70 | > 50 | < 50 | – | – | – | – | – | –
C=C(C)[C@@H]1CCC(C)=C[C@H]1c1c(O)cc(CCCCC)c2c1OCN(C)C2 [Ia, (N-methyldihydrol-2H-oxazinyl)-cannabidiol] | 50 to 70 | > 50 | > 70 | > 70 | > 70 | > 70 | > 70 | > 70 | > 70 | > 70 | > 70 | > 70 | > 70 | > 70 | –
C=C(C)[C@@H]1CCC(C)=C[C@H]1c1c(O)cc(CCCCC)c2c1OCN(CC)C2 [Ib, (N-ethyldihydrol-2H-oxazinyl)-cannabidiol] | 50 to 70 | > 50 | > 70 | > 70 | > 70 | > 70 | > 70 | > 70 | 50 to 70 | > 70 | > 70 | > 50 | 50 to 70 | > 50 | –
C=C(C)[C@@H]1CCC(C)=C[C@H]1c1c(O)cc(CCCCC)c2c1OCN(CCC)C2 [Ic, (N-propyldihydrol-2H-oxazinyl)-cannabidiol] | 50 to 70 | > 50 | > 70 | > 70 | 50 to 70 | > 50 | 50 to 70 | > 50 | 50 to 70 | > 70 | > 70 | > 50 | < 50 | – | –
C=C(C)[C@@H]1CCC(C)=C[C@H]1c1c(O)cc(CCCCC)c2c1OCN(CCCC)C2 [Id, (N-butyldihydrol-2H-oxazinyl)-cannabidiol] | > 70 | > 70 | > 70 | > 70 | > 70 | > 70 | > 70 | > 70 | 50 to 70 | > 70 | > 70 | > 50 | < 50 | – | IC50 ([1]; HCT-116, read-out: IC50 against HCT-116): 4.1 µM; IC50 ([2]; MCF7, read-out: IC50 against MCF-7): 2.89 µM; IC50 ([3]; A549, read-out: IC50 against A549): 9.36 µM; IC50 ([6]; MIA PaCa-2, read-out: IC50 against Mia-PaCa-2): 11.5 µM; IC50 ([4]; read-out: IC50 against PC-3): 4.2 µM; IC50 ([5]; U-251, read-out: IC50 against U251): 17.4 µM
C=C(C)[C@@H]1CCC(C)=C[C@H]1c1c(O)cc(CCCCC)c2c1OCN(CCCCCC)C2 [Ie, (N-hexyldihydrol-2H-oxazinyl)-cannabidiol] | > 70 | > 70 | > 70 | > 70 | < 50 | – | < 50 | – | < 50 | < 50 | – | – | – | – | inhibition at 48 h, 20 µM (in vitro): < 50%
C=C(C)[C@@H]1CCC(C)=C[C@H]1c1c(O)cc(CCCCC)c2c1OCN(CCCN1CCOCC1)C2 [If, (N-morpholinopropyldihydrol-2H-oxazinyl)-cannabidiol] | 50 to 70 | > 50 | > 70 | > 70 | > 70 | > 70 | > 70 | > 70 | > 70 | > 70 | > 70 | > 70 | – | > 50 | inhibition at 48 h, 20 µM (in vitro): 50 to 70%
